In US20200222474A1, “COMPOSITIONS AND METHODS FOR INCREASING PHYTOCHEMICAL BIOAVAILABLITY AND BIOACTIVITY” (North Carolina State University, priority 2017, published 2020):

Tested on: L. acidophilus NCFM
Test: RNA-seq transcriptional analysis of L. acidophilus NCFM growing on plant glycosides
Format: cell-based, Lactobacillus acidophilus
[1] = gene LBA0282 (Hypothetical protein)
[2] = gene LBA0327 (Replication protein)
[3] = gene LBA0328 (Hypothetical protein)
[4] = gene LBA0330 (Hypothetical protein)
[5] = gene LBA0457 (Hypothetical protein)
[6] = gene LBA0485 (Hypothetical protein)
[7] = gene LBA0486 (Hypothetical protein)
[8] = gene LBA0487 (Hypothetical protein.)
[9] = gene LBA0492 (Hypothetical protein)
[10] = gene LBA0541 (Cadmium-transporting ATPase)
[11] = gene LBA0542 (Putative heavy-metal-transporting alpase)
[12] = gene LBA0543 (Hypothetical protein)
[13] = gene LBA0544 (Transcriptional regulator)
[14] = gene LBA0555 (Myosin-crossreactive antigen)
[15] = gene LBA0564 (HAD family hydrolase)
[16] = gene LBA0574 (ABC multi drug exporter)
[17] = gene LBA0575 (ABC multi drug exporter)
[18] = gene LBA0604 (Immunity protein)
[19] = gene LBA0605 (Putative hydrolase)
[20] = gene LBA0608 (Hypothetical protein)
[21] = gene LBA0631 (Hypothetical protein)
[22] = gene LBA0649 (Myosin-crossreactive antigen)
[23] = gene LBA0728 (Hypothetical protein LBA0728)
[24] = gene LBA1025 (Aldo/keto reductase family oxidoreductase)
[25] = gene LBA1026 (Aldo/keto reduetase family oxidoreductase)
[26] = gene LBA1206 (Hypothetical protein)
[27] = gene LBA1401 (Peroxidase (Npx))
[28] = gene LBA1435 (Hypothetical protein)
[29] = gene LBA1455 (Putative surface layer protein)
[30] = gene LBA1469 (UDP-glucose 4-epimerase)
[31] = gene LBA1656 (Hypothetical protein)
[32] = gene LBA1675 (Hypothetical protein)
[33] = gene LBA1676 (ATP-dependent helicase)
[34] = gene LBA1683 (Putative magnesium-transporting atpase)
[35] = gene LBA1704 (N-Acetylmuramic acid-6-phosphate etherase)
[36] = gene LBA1740 (Hypothetical protein)
[37] = gene LBA1752 (Hypothetical protein)
[38] = gene LBA1769 (Hypothetical protein)
[39] = gene LBA1793 (Hypothetical protein)
[40] = gene LBA1869 (Beta-phosphoglueomutase)
[41] = gene LBA1895 (Hypothetical protein)
[42] = nTPM on plant glycoside relative to glucose, mid-exponential phase

Compound: O=c1ccc2cc(O[C@@H]3O[C@H](CO)[C@@H](O)[C@H](O)[C@H]3O)c(O)cc2o1 [Esculin]
- Log2 differential normalized TPM ratio compared to glucose [1]: 2.1
- Log2 differential normalized TPM ratio compared to lactose [1]: 1.4
- Transcripts per million (rpm) [1]: 92.4 rpm
- Log2 differential normalized TPM ratio compared to glucose [2]: 2.4
- Log2 differential normalized TPM ratio compared to lactose [2]: 2.1
- Transcripts per million (rpm) [2]: 43.4 rpm
- Log2 differential normalized TPM ratio compared to glucose [3]: 1.9
- Log2 differential normalized TPM ratio compared to lactose [3]: 2
- Transcripts per million (rpm) [3]: 55.9 rpm
- Log2 differential normalized TPM ratio compared to glucose [4]: 3.3
- Log2 differential normalized TPM ratio compared to lactose [4]: 2.9
- Transcripts per million (rpm) [4]: 211.2 rpm
- Log2 differential normalized TPM ratio compared to glucose [5]: 2.1
- Log2 differential normalized TPM ratio compared to lactose [5]: 1.1
- Transcripts per million (rpm) [5]: 2243.1 rpm
- Log2 differential normalized TPM ratio compared to glucose [6]: 2
- Log2 differential normalized TPM ratio compared to lactose [6]: −0.4
- Transcripts per million (rpm) [6]: 868.4 rpm
- Log2 differential normalized TPM ratio compared to glucose [7]: 2.3
- Log2 differential normalized TPM ratio compared to lactose [7]: −0.5
- Transcripts per million (rpm) [7]: 1210.2 rpm
- Log2 differential normalized TPM ratio compared to glucose [8]: 1
- Log2 differential normalized TPM ratio compared to lactose [8]: −0.3
- Transcripts per million (rpm) [8]: 69.1 rpm
- Log2 differential normalized TPM ratio compared to glucose [9]: 3.7
- Log2 differential normalized TPM ratio compared to lactose [9]: 1.2
- Transcripts per million (rpm) [9]: 108.4 rpm
- Log2 differential normalized TPM ratio compared to glucose [10]: 1.9
- Log2 differential normalized TPM ratio compared to lactose [10]: −0.3
- Transcripts per million (rpm) [10]: 138.8 rpm
- Log2 differential normalized TPM ratio compared to glucose [11]: 1.9
- Log2 differential normalized TPM ratio compared to lactose [11]: −0.3
- Transcripts per million (rpm) [11]: 337.4 rpm
- Log2 differential normalized TPM ratio compared to glucose [12]: 2
- Log2 differential normalized TPM ratio compared to lactose [12]: −0.4
- Transcripts per million (rpm) [12]: 278.7 rpm
- Log2 differential normalized TPM ratio compared to glucose [13]: 1.6
- Log2 differential normalized TPM ratio compared to lactose [13]: −0.3
- Transcripts per million (rpm) [13]: 342.2 rpm
- Log2 differential normalized TPM ratio compared to glucose [14]: 2
- Log2 differential normalized TPM ratio compared to lactose [14]: 0.1
- Transcripts per million (rpm) [14]: 186.9 rpm
- Log2 differential normalized TPM ratio compared to glucose [15]: 1.4
- Log2 differential normalized TPM ratio compared to lactose [15]: 0.9
- Transcripts per million (rpm) [15]: 2.8 rpm
- Log2 differential normalized TPM ratio compared to glucose [16]: 2.4
- Log2 differential normalized TPM ratio compared to lactose [16]: 2.1
- Transcripts per million (rpm) [16]: 490.6 rpm
- Log2 differential normalized TPM ratio compared to glucose [17]: 2.2
- Log2 differential normalized TPM ratio compared to lactose [17]: 2
- Transcripts per million (rpm) [17]: 381 rpm
- Log2 differential normalized TPM ratio compared to glucose [18]: −0.3
- Log2 differential normalized TPM ratio compared to lactose [18]: −0.8
- Transcripts per million (rpm) [18]: 12.5 rpm
- Log2 differential normalized TPM ratio compared to glucose [19]: 2.4
- Log2 differential normalized TPM ratio compared to lactose [19]: 1.4
- Transcripts per million (rpm) [19]: 15.5 rpm
- Log2 differential normalized TPM ratio compared to glucose [20]: 2.3
- Log2 differential normalized TPM ratio compared to lactose [20]: 1.2
- Transcripts per million (rpm) [20]: 183.9 rpm
- Log2 differential normalized TPM ratio compared to glucose [21]: 2.9
- Log2 differential normalized TPM ratio compared to lactose [21]: −0.2
- Transcripts per million (rpm) [21]: 9527.2 rpm
- Log2 differential normalized TPM ratio compared to glucose [22]: 1.9
- Log2 differential normalized TPM ratio compared to lactose [22]: 1.2
- Transcripts per million (rpm) [22]: 154.8 rpm
- Log2 differential normalized TPM ratio compared to glucose [23]: 4.8
- Log2 differential normalized TPM ratio compared to lactose [23]: 3
- Transcripts per million (rpm) [23]: 70.6 rpm
- Log2 differential normalized TPM ratio compared to glucose (gene LBA0861 (Polyferredoxin)): 2
- Log2 differential normalized TPM ratio compared to lactose (gene LBA0861 (Polyferredoxin)): 1.5
- Transcripts per million (rpm) (gene LBA0861 (Polyferredoxin)): 785.8 rpm
- Log2 differential normalized TPM ratio compared to glucose (gene LBA1023 (Oxidoreductase)): 2.3
- Log2 differential normalized TPM ratio compared to lactose (gene LBA1023 (Oxidoreductase)): 2
- Transcripts per million (rpm) (gene LBA1023 (Oxidoreductase)): 911.4 rpm
- Log2 differential normalized TPM ratio compared to glucose [24]: 2.7
- Log2 differential normalized TPM ratio compared to lactose [24]: 2.7
- Transcripts per million (rpm) [24]: 210.8 rpm
- Log2 differential normalized TPM ratio compared to glucose [25]: 2.3
- Log2 differential normalized TPM ratio compared to lactose [25]: 1.9
- Transcripts per million (rpm) [25]: 162.5 rpm
- Log2 differential normalized TPM ratio compared to glucose (gene LBA1027 (Oxidoreductase)): 2.1
- Log2 differential normalized TPM ratio compared to lactose (gene LBA1027 (Oxidoreductase)): 0.6
- Transcripts per million (rpm) (gene LBA1027 (Oxidoreductase)): 2680.9 rpm
- Log2 differential normalized TPM ratio compared to glucose [26]: 2.2
- Log2 differential normalized TPM ratio compared to lactose [26]: 1
- Transcripts per million (rpm) [26]: 636.7 rpm
- Log2 differential normalized TPM ratio compared to glucose [27]: 3.1
- Log2 differential normalized TPM ratio compared to lactose [27]: 1
- Transcripts per million (rpm) [27]: 609.8 rpm
- Log2 differential normalized TPM ratio compared to glucose [28]: 5
- Log2 differential normalized TPM ratio compared to lactose [28]: 1.3
- Transcripts per million (rpm) [28]: 142.3 rpm
- Log2 differential normalized TPM ratio compared to glucose [29]: 0.7
- Log2 differential normalized TPM ratio compared to lactose [29]: −0.9
- Transcripts per million (rpm) [29]: 28.7 rpm
- Log2 differential normalized TPM ratio compared to glucose [30]: 2.1
- Log2 differential normalized TPM ratio compared to lactose [30]: −2.9
- Transcripts per million (rpm) [30]: 385 rpm
- Log2 differential normalized TPM ratio compared to glucose [31]: 1.2
- Log2 differential normalized TPM ratio compared to lactose [31]: 0.6
- Transcripts per million (rpm) [31]: 48.5 rpm
- Log2 differential normalized TPM ratio compared to glucose [32]: 2.2
- Log2 differential normalized TPM ratio compared to lactose [32]: 0.8
- Transcripts per million (rpm) [32]: 1975.8 rpm
- Log2 differential normalized TPM ratio compared to glucose [33]: 2
- Log2 differential normalized TPM ratio compared to lactose [33]: 0.8
- Transcripts per million (rpm) [33]: 1361.3 rpm
- Log2 differential normalized TPM ratio compared to glucose [34]: 0.3
- Log2 differential normalized TPM ratio compared to lactose [34]: 0.5
- Transcripts per million (rpm) [34]: 20.5 rpm
- Log2 differential normalized TPM ratio compared to glucose [35]: 1.6
- Log2 differential normalized TPM ratio compared to lactose [35]: 0.9
- Transcripts per million (rpm) [35]: 21.2 rpm
- Log2 differential normalized TPM ratio compared to glucose [36]: 2.4
- Log2 differential normalized TPM ratio compared to lactose [36]: 1.6
- Transcripts per million (rpm) [36]: 95.9 rpm
- Log2 differential normalized TPM ratio compared to glucose [37]: 2.3
- Log2 differential normalized TPM ratio compared to lactose [37]: 1.4
- Transcripts per million (rpm) [37]: 42.9 rpm
- Log2 differential normalized TPM ratio compared to glucose [38]: 1.9
- Log2 differential normalized TPM ratio compared to lactose [38]: 0
- Transcripts per million (rpm) [38]: 6023.9 rpm
- Log2 differential normalized TPM ratio compared to glucose [39]: 0.7
- Log2 differential normalized TPM ratio compared to lactose [39]: −2.1
- Transcripts per million (rpm) [39]: 28.5 rpm
- Log2 differential normalized TPM ratio compared to glucose (gene LBA1796 (ABC exporter)): 1.9
- Log2 differential normalized TPM ratio compared to lactose (gene LBA1796 (ABC exporter)): −0.6
- Transcripts per million (rpm) (gene LBA1796 (ABC exporter)): 35.2 rpm
- Log2 differential normalized TPM ratio compared to glucose [40]: 4.2
- Log2 differential normalized TPM ratio compared to lactose [40]: 1.8
- Transcripts per million (rpm) [40]: 156.4 rpm
- Log2 differential normalized TPM ratio compared to glucose [41]: 1.4
- Log2 differential normalized TPM ratio compared to lactose [41]: 1.2
- Transcripts per million (rpm) [41]: 74.5 rpm
- Log2 Ratio vs Glc, LBA0225 Phospho-β-glucosidase (GH1) [42]: −0.2
- Log2 Ratio vs Glc, LBA0227 PTS EIIC [42]: 0.8
- Log2 Ratio vs Glc, LBA0228 Transcriptional regulator [42]: 0.9
- Log2 Ratio vs Glc, LBA0466 Phosphoenolpyruvate carboxykinase (ATP) [42]: 2
- Log2 Ratio vs Glc, LBA0491 PTS EIIC [42]: 3.4
- Log2 Ratio vs Glc, LBA0492 Hypothetical protein [42]: 3.7
- Log2 Ratio vs Glc, LBA0555 Myosin-cross-reactive antigen/Fatty acid hydratase [42]: 2
- Log2 Ratio vs Glc, LBA0606 PTS EIIBC [42]: 2.8
- Log2 Ratio vs Glc, LBA0631 Hypothetical protein [42]: 2.9
- Log2 Ratio vs Glc, LBA0724 Transcriptional regulator (antiterminator) [42]: 5.5
- Log2 Ratio vs Glc, LBA0725 PTS EIICBA [42]: 9.8
- Log2 Ratio vs Glc, LBA0726 Phospho-β-glucosidase (GH1) [42]: 6.9
- Log2 Ratio vs Glc, LBA0728 Hypothetical protein [42]: 4.8
- Log2 Ratio vs Glc, LBA0876 PTS EIIC [42]: 2.9
- Log2 Ratio vs Glc, LBA0877 PTS EIIA [42]: 3
- Log2 Ratio vs Glc, LBA1401 Peroxidase (Npx) [42]: 3.1
- Log2 Ratio vs Glc, LBA1411 Fumarate reductase flavoprotein subunit [42]: 1.7
- Log2 Ratio vs Glc, LBA1433 Dihydroxyacetone kinase [42]: 3.7
- Log2 Ratio vs Glc, LBA1434 Dihydroxyacetone kinase [42]: 4.5
- Log2 Ratio vs Glc, LBA1435 Hypothetical protein [42]: 5
- Log2 Ratio vs Glc, LBA1436 Glycerol uptake facilitator protein [42]: 4.9
- Log2 Ratio vs Glc, LBA1632 NAD-dependent aldehyde dehydrogenase [42]: 3.3
- Log2 Ratio vs Glc, LBA1684 PTS EIIA [42]: 2.9
- Log2 Ratio vs Glc, LBA1689 Maltose-6′-phosphate glucosidase (GH4) [42]: 1.8
- Log2 Ratio vs Glc, LBA1701 Melibiose operon regulatory protein [42]: 4.9
- Log2 Ratio vs Glc, LBA1709 Mucus binding protein precursor [42]: 3.6
- Log2 Ratio vs Glc, LBA1797 Hypothetical protein [42]: 2.6
- Log2 Ratio vs Glc, LBA1812 α-Glucosidase II (GH31) [42]: 2.8
- Log2 Ratio vs Glc, LBA1869 β-Phosphoglucomutase [42]: 4.2
- Log2 Ratio vs Glc, LBA1871 Neopullulanase (GH13) [42]: 2.1
- Log2 Ratio vs Glc, LBA1873 Acetate kinase [42]: 0.8
- Log2 Ratio vs Glc, LBA1974 Pyruvate oxidase [42]: 3.6
